Reference: patent publication US7893074B2, “2, 4-pyrimidinediamines useful in the treatment of neoplastic diseases, inflammatory and immune system disorders” (Novartis AG, priority 2003, dated 2011)
Where “and” joins values, the source holds several entries; their conditions need not be identical. Equal entries are not always repeated. Where two headings read alike, the source gives them in different places.

Legend:
[1] = test system: Mouse mammary carcinoma 4T1 cells; test: Anchorage-independent tumor cell growth assay; format: cell-based
Procedure: Cells are cultured for 2 h and inhibitors are added at various concentrations in a final concentration of 0.1% DMSO. After 48 h, cell growth is assayed with the cell counting kit-8 (Wako Pure Chemical), which uses a water soluble tetrazolium salt WST8. Twenty μL of the reagent is added into each well and cells are further cultured for 2 h. The optical density is measured at 450 nm.

[2] = target: FAK (Mus musculus, UniProt P34152); test: Phos IC50 (phosphorylation); format: cell-based
[3] = target: Focal Adhesion Kinase (FAK) (Homo sapiens, UniProt Q05397); test: FAK assay system (Focal Adhesion Kinase inhibition); format: biochemical
Focal Adhesion Kinase (FAK), sequence (Q05397 384-706): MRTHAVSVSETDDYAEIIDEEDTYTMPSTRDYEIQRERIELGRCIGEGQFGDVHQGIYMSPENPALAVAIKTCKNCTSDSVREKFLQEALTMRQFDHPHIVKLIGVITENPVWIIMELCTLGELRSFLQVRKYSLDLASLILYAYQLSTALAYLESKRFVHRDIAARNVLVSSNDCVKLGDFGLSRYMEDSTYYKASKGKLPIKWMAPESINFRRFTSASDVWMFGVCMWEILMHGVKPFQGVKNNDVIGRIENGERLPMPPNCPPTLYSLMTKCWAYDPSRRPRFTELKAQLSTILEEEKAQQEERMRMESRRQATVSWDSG

FAK, sequence (P34152 2-1052): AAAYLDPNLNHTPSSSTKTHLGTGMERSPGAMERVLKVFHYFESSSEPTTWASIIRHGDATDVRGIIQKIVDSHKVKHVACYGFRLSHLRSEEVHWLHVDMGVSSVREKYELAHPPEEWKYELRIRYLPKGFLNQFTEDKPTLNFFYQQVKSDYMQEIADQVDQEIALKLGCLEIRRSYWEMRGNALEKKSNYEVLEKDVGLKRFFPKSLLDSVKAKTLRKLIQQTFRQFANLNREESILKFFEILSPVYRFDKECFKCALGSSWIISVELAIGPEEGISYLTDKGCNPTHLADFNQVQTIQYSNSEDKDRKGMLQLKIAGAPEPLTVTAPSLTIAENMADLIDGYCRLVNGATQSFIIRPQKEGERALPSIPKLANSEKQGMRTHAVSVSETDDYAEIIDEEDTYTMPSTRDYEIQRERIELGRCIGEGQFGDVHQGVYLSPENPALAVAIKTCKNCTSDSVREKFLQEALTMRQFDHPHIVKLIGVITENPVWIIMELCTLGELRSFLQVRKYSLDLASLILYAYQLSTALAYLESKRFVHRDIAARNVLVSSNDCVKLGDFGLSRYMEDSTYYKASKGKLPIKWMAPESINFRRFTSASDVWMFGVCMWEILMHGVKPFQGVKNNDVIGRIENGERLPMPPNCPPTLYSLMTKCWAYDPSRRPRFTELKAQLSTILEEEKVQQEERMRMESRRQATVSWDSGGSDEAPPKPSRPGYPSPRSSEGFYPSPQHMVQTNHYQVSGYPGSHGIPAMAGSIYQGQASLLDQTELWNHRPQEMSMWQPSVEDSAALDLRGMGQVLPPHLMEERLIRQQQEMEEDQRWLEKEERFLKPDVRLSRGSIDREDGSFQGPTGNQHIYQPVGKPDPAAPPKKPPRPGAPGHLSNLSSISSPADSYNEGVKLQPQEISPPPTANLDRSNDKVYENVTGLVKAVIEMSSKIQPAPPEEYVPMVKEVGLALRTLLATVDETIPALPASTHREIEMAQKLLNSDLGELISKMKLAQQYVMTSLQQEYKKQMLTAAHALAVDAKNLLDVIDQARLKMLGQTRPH

| Compound | IC50 ([1]; Mus musculus, 4T1) [nM] | IC50 ([3]; read-out: FAK IC50) | other results |
| --- | --- | --- | --- |
| NS(=O)(=O)c1ccccc1Nc1nc(Nc2cccc3c2OC(F)(F)O3)ncc1Br [Compound 6, 2-[5-Bromo-2-(2,3-[difluoromethylenedioxy]phenylamino)-pyrimidin-4-ylamino]-benzenesulfonamide] | 5000 | 110 nM | IC50 [2]: 350 nM |
| CNS(=O)(=O)c1ccccc1Nc1nc(Nc2cc(OC)ccc2OC)ncc1[N+](=O)[O-] [Example 1, 2-[2-(2,5-Dimethoxy-phenylamino)-5-nitro-pyrimidin-4-ylamino]-N-methyl-benzenesulfonamide] | > 10000 | 140 nM | IC50 [2]: 700 nM |
| CNS(=O)(=O)c1ccccc1Nc1nc(Nc2ccc(OC)cc2OC)ncc1Br [Example 2, 2-[5-Bromo-2-(2,4-dimethoxy-phenylamino)-pyrimidin-4-ylamino]-N-methyl-benzenesulfonamide] | – | 13 nM | – |
| CNS(=O)(=O)c1ccccc1Nc1nc(Nc2cccc3c2OC(F)(F)O3)ncc1Br [Example 3-1] | > 10000 | 44 nM | IC50 [2]: 340 nM |
| CNS(=O)(=O)c1ccccc1Nc1nc(Nc2cc(OC)ccc2C)ncc1Br [Example 3-3] | 800 | 9.1 nM | IC50 [2]: 140 nM |
| CNS(=O)(=O)c1ccccc1Nc1nc(Nc2ccc(C)cc2F)ncc1Br [Example 3-4] | 2000 | 32 nM | IC50 [2]: 530 nM |
| CNS(=O)(=O)c1ccccc1Nc1nc(Nc2ccccc2OC)ncc1Br [Example 3-6] | 2000 | 13 nM | IC50 [2]: 110 nM |
| CNS(=O)(=O)c1ccccc1Nc1nc(Nc2ccccc2C)ncc1Br [Example 3-7] | 2000 | 16 nM | IC50 [2]: 450 nM |
| CNc1ccccc1Nc1ncc(Br)c(Nc2ccccc2S(=O)(=O)NC)n1 [Example 3-8] | 6000 | 74 nM | IC50 [2]: 300 nM |
| CNS(=O)(=O)c1ccccc1Nc1nc(Nc2cc(-c3ccccc3)ccc2OC)ncc1Br [Example 3-9] | 700 | 48 nM | IC50 [2]: 500 nM |
| CNS(=O)(=O)c1ccccc1Nc1nc(Nc2cccc3c2CCC3)ncc1Br [Example 3-12] | 1000 | – | IC50 ([3]; FAK IC50): 5.4 nM; IC50 ([3]; FAK inhibition IC50, FAK assay system): 1 to 5 nM |
| CNS(=O)(=O)c1ccccc1Nc1nc(Nc2ccc(F)cc2F)ncc1Br [Example 3-36] | 2800 | – | IC50 ([3]; FAK IC50): 43 nM |
| CNS(=O)(=O)c1ccccc1Nc1nc(Nc2cc(C(=O)N3CCN(C)CC3)ccc2OC)ncc1Br [Example 3-49] | 390 | 39 nM | – |
| CNS(=O)(=O)c1ccccc1Nc1nc(Nc2cccc(N(C)C)c2C)ncc1Br [Example 3-53] | 210 | – | IC50 ([3]; FAK IC50): 6 nM |
| CNS(=O)(=O)c1ccccc1Nc1nc(Nc2cc(-c3ccc(OC)cc3)ccc2OC)ncc1Br [Example 3-56] | 150 | – | IC50 ([3]; FAK IC50): 28 nM |
| CCOc1ccc(OC)cc1Nc1ncc(Br)c(Nc2ccccc2S(=O)(=O)NC)n1 [Example 3-61] | > 10000 | 12 nM | – |
| CNS(=O)(=O)c1ccccc1Nc1nc(Nc2ccc(OC3CCN(C)C3)cc2OC)ncc1Br (stereo not drawn) [Example 3-82] | – | – | IC50 [1]: 70 nM |
| CNC(=O)c1ccccc1Nc1nc(Nc2ccc(N3CCC[C@@H](C(N)=O)C3)cc2OC)ncc1Cl [Example 7-17] | – | – | IC50 ([3]; FAK IC50): 4.3 nM |
| CNC(=O)c1ccccc1Nc1nc(Nc2ccc(N3CCC[C@H](C(N)=O)C3)cc2OC)ncc1Cl [Example 7-18] | – | – | IC50 ([3]; FAK IC50): 6.2 nM |
| CNC(=O)c1ccccc1Nc1nc(Nc2cc(N3CCC(N4CCN(C)CC4)CC3)ccc2OC)ncc1Cl [Example 7-19] | 330 | 13 nM | – |

| Compound | IC50 ([1]; Mus musculus, 4T1) [nM] | IC50 ([3]; read-out: FAK IC50) | other results |
| --- | --- | --- | --- |
| CNC(=O)c1ccccc1Nc1nc(Nc2cc(N3CCN(C)CC3)ccc2OC)ncc1Cl [Example 7-22] | 480 | 25 nM | – |
| CNC(=O)c1ccccc1Nc1nc(Nc2cc(N3CCC(NC)C3)ccc2OC)ncc1Cl (stereo not drawn) [Example 7-23] | 250 | 1.4 nM | – |
| CNC(=O)c1ccccc1Nc1nc(Nc2cc(N3CCC(N4CCCCC4)CC3)ccc2OC)ncc1Cl [Example 7-24] | 90 | 5.1 nM | – |
| CNC(=O)c1ccccc1Nc1nc(Nc2ccc(N3CCC(N4CCCC4)CC3)cc2OC)ncc1Cl [Example 7-25] | 730 | 13 nM and 2 nM | IC50 [1]: 570 nM |
| CNC(=O)c1ccccc1Nc1nc(Nc2ccc(N3CCNCC3)cc2OC)ncc1Cl [Example 7-26] | 150 | 4.1 nM | – |
| CCNC(=O)c1ccccc1Nc1nc(Nc2ccc(N3CCC(N4CCCCC4)CC3)cc2OC)ncc1Cl [Example 9-3] | – | – | IC50 [1]: 370 nM |
| COc1cc(N2CCN(C)CC2)ccc1Nc1ncc(Cl)c(Nc2cccc3c2C(=O)N(C)C3)n1 [Example 12-2] | 50 | 1.6 nM | – |
| COc1cc(N2CCC(O)CC2)ccc1Nc1ncc(Cl)c(Nc2cccc3c2C(=O)N(C)C3)n1 [Example 12-3] | 250 | 2.3 nM | – |
| COc1cc(N2CCC(N3CCN(C)CC3)CC2)ccc1Nc1ncc(Cl)c(Nc2cccc3c2C(=O)N(C)C3)n1 [Example 12-4] | 140 | 1.1 nM | – |
| COc1cc(N2CCN3CCOC[C@H]3C2)ccc1Nc1ncc(Cl)c(Nc2cccc3c2C(=O)N(C)C3)n1 [Example 12-6] | – | 2.6 nM | – |
| CCN1Cc2cccc(Nc3nc(Nc4ccc(N5CCN(C)CC5)cc4OC)ncc3Cl)c2C1=O [Example 13-1] | 810 | 65 nM | – |
| CNC(=O)c1cc(F)c(F)cc1Nc1nc(Nc2ccc(N3CCOCC3)cc2OC)ncc1Cl [Example 14-3] | 1010 | – | IC50 ([3]; FAK IC50): 30 nM |
| COc1cc(N2CCOCC2)ccc1Nc1ncc(Cl)c(Nc2cccc3c2C(=O)CC3)n1 [Example 14-4] | 540 | 18 nM | – |
| COc1cc(N2CCOCC2)ccc1Nc1ncc(Cl)c(Nc2ccccc2C(=O)N2CCCC2)n1 [Example 14-6] | 1110 | 63 nM | – |
| CNC(=O)c1cc(N2CCCC2)ccc1Nc1nc(Nc2ccc(N3CCN(C)CC3)cc2OC)ncc1Cl [Example 15-1] | 470 | 15 nM | – |
| CNC(=O)c1cc(N2CCCC2)ccc1Nc1nc(Nc2ccc(N3CCOCC3)cc2OC)ncc1Cl [Example 15-3] | – | – | IC50 [1]: 1670 nM |
| COc1cc(N2CCCC(C(N)=O)C2)ccc1Nc1ncc(Cl)c(Nc2ccccc2S(=O)(=O)NC(C)C)n1 (stereo not drawn) [Example 19-19] | 400 | 5.7 nM | – |
| COc1cc(OCC(C)(C)CN(C)C)ccc1Nc1ncc(Cl)c(Nc2ccccc2S(=O)(=O)NC(C)C)n1 [Example 19-24] | 120 | – | IC50 ([3]; FAK IC50): 1.8 nM |
| COc1cc(OCCN2CCOCC2)ccc1Nc1ncc(Cl)c(Nc2ccccc2S(=O)(=O)NC(C)C)n1 [Example 19-29] | – | 1.9 nM | – |
| CNS(=O)(=O)c1ccccc1Nc1nc(Nc2cc(OC)c(N3CCOCC3)cc2OC)ncc1Cl [Example 20-12] | – | 9.5 nM | – |

| Compound | IC50 ([1]; Mus musculus, 4T1) [nM] | IC50 ([3]; read-out: FAK IC50) | other results |
| --- | --- | --- | --- |
| CNS(=O)(=O)c1ccccc1Nc1nc(Nc2cc(OC)c(N3CCN(C)CC3)cc2OC)ncc1Cl [Example 20-13] | 40 | 6.3 nM | – |
| CCCOc1cc(N2CCN(C)CC2)ccc1Nc1ncc(Cl)c(Nc2ccccc2S(=O)(=O)NC)n1 [Example 20-14] | 320 | 33 nM | – |
| CNS(=O)(=O)c1ccccc1Nc1nc(Nc2ccc(N3CCC(N4CCN(C)CC4)CC3)cc2OC)ncc1Cl [Example 20-16] | 60 | 7.5 nM | – |
| CNC1CCN(c2ccc(Nc3ncc(Cl)c(Nc4ccccc4S(=O)(=O)NC)n3)c(OC)c2)C1 (stereo not drawn) [Example 20-17] | 140 | 2 nM | – |
| CNS(=O)(=O)c1ccccc1Nc1nc(Nc2cc(N3CCC(N4CCN(C)CC4)CC3)ccc2OC)ncc1Cl [Example 20-18] | 810 | 15 nM | – |
| CNS(=O)(=O)c1ccccc1Nc1nc(Nc2cc(N3CCC(O)CC3)ccc2OC)ncc1Cl [Example 20-19] | 210 | 28 nM | – |
| CNS(=O)(=O)c1ccccc1Nc1nc(Nc2ccc(OC3CCN(C)C3)cc2OC)ncc1Cl (stereo not drawn) [Example 20-29] | – | – | IC50 [1]: 50 nM |
| CNS(=O)(=O)c1ccccc1Nc1nc(Nc2cc(N3CCN(C)CC3)ccc2OC)ncc1Cl [Example 20-31] | 500 | 39 nM | – |
| CNS(=O)(=O)c1ccccc1Nc1nc(Nc2cc(N3CCC(N4CCCCC4)CC3)ccc2OC)ncc1Cl [Example 20-32] | 110 | 13 nM | – |
| CNC1CCN(c2ccc(OC)c(Nc3ncc(Cl)c(Nc4ccccc4S(=O)(=O)NC)n3)c2)C1 (stereo not drawn) [Example 20-33] | 380 | 2.5 nM | – |
| CCC(CC)NS(=O)(=O)c1ccccc1Nc1nc(Nc2ccc(OC3CCN(C)C3)cc2OC)ncc1Cl (stereo not drawn) [Example 23-7] | – | – | IC50 [1]: 840 nM |
| COc1cc(N2CCOCC2)ccc1Nc1ncc(Cl)c(Nc2ccccc2S(=O)(=O)NC2CCCC2)n1 [Example 25-1] | 1000 | – | IC50 ([3]; FAK IC50): 8.5 nM |
| CCCS(=O)(=O)c1ccccc1Nc1nc(Nc2ccc(N3CCCC(C(N)=O)C3)cc2OC)ncc1Cl (stereo not drawn) [Example 26-14] | 190 | 5 nM | – |
| CCCS(=O)(=O)c1ccccc1Nc1nc(Nc2ccc(N3CCN(CC(=O)NC(C)C)CC3)cc2OC)ncc1Cl [Example 26-21] | – | 1.1 nM | IC50 [2]: 100 nM |
| COc1cc(N2CCC(N3CCN(C)CC3)CC2)ccc1Nc1ncc(Cl)c(Nc2ccccc2S(=O)(=O)C(C)C)n1 [Example 28-5] | 120 | – | IC50 [2]: 100 nM |
| COc1cc([N+](=O)[O-])ccc1Nc1ncc(Cl)c(Nc2ccccc2S(=O)(=O)C(C)C)n1 [Example 28-7] | > 10000 | – | IC50 ([3]; FAK IC50): 47 nM |
| CCN1CCN(c2ccc(Nc3ncc(Cl)c(Nc4ccccc4S(=O)(=O)C(C)C)n3)c(OC)c2)CC1 [Example 28-12] | 430 | 3.2 nM | – |
| COc1cc(OC2CCN(C)CC2)ccc1Nc1ncc(Cl)c(Nc2ccccc2S(=O)(=O)C(C)C)n1 [Example 28-19] | – | – | IC50 [1]: 140 nM |
| CNC1CCN(c2ccc(Nc3ncc(Cl)c(Nc4ccccc4S(=O)(=O)C(C)C)n3)c(OC)c2)CC1 [Example 28-20] | – | 4.4 nM | IC50 [2]: […] |
